#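 Test compounds were applied to cells in 96-well plates for 48 hours at 5 doses. At the TGI there is no net growth.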
# How the values were obtained:
# Assay in all cases: growth of human tumour cells (NCI), 48 h
# [1] = tested on: IGROV1 ovarian
# [2] = tested on: OVCAR-5 ovarian
# [3] = tested on: SF-268 CNS
# [4] = tested on: SNB-19 CNS
# [5] = tested on: UO-31 renal
# [6] = tested on: RPMI-8226 leukemia
# [7] = tested on: M14 melanoma
# [8] = tested on: NCI/ADR-RES ovarian
# [9] = tested on: NCI-H460 lung
# [10] = tested on: SK-MEL-28 melanoma
# [11] = tested on: CCRF-CEM leukemia
# [12] = tested on: COLO 205 colon
# [13] = tested on: SW-620 colon
# [14] = tested on: T-47D breast
# [15] = tested on: MDA-N
# [16] = tested on: TK-10 renal
# [17] = tested on: HCT-15 colon
# [18] = tested on: MDA-MB-231 breast
# [19] = tested on: RXF 393 renal
# [20] = tested on: UACC-257 melanoma
# [21] = tested on: ACHN renal
# [22] = tested on: SK-MEL-5 melanoma
# [23] = tested on: KM12 colon
# [24] = tested on: SK-MEL-2 melanoma
# [25] = tested on: A498 renal
# [26] = tested on: HOP-62 NSCLC
# [27] = tested on: OVCAR-3 ovarian
# [28] = tested on: OVCAR-4 ovarian
# [29] = tested on: SK-OV-3 ovarian
# [30] = tested on: DU-145 prostate
# [31] = tested on: HL-60(TB) leukemia
# [32] = tested on: SR leukemia
# [33] = tested on: UACC-62 melanoma
# [34] = tested on: SN12C renal
# [35] = tested on: HS 578T breast
# [36] = tested on: LOX IMVI melanoma
# [37] = tested on: SF-539 CNS
# [38] = tested on: EKVX NSCLC
# [39] = tested on: HCT-116 colon
# [40] = tested on: PC-3 prostate
# [41] = tested on: HT29 colon
# [42] = tested on: 786-0 renal
# [43] = tested on: OVCAR-8 ovarian
# [44] = tested on: MCF7 breast
# [45] = tested on: SF-295 CNS
# [46] = tested on: U251 CNS
# [47] = tested on: NCI-H522 lung
# [48] = tested on: CAKI-1 renal
# [49] = tested on: BT-549 breast
# [50] = tested on: A549 NSCLC
# [51] = tested on: MDA-MB-435
# [52] = tested on: NCI-H23 lung
# [53] = tested on: HCC-2998 colon
# [54] = tested on: K-562 leukemia
# [55] = tested on: MALME-3M melanoma
# [56] = tested on: MOLT-4 leukemia
# [57] = tested on: NCI-H226 lung
# [58] = tested on: HOP-92 NSCLC
# [59] = tested on: SNB-75 CNS
smiles,measurement,setting,value
COC1=C(OC)C(=O)C(Cc2c(-c3ccccc3)nc3sc(Cl)cn23)=C(C)C1=O,TGI,[1],29.9 µM
same,TGI,[2],56.5 µM
same,TGI,[3],41.2 µM
same,TGI,[4],35.3 µM
same,TGI,[5],30.5 µM
same,TGI,[6],34.9 µM
same,TGI,[7],33.7 µM
same,TGI,[8],39.9 µM
same,TGI,[9],40 µM
same,TGI,[10],27 µM
same,TGI,[11],53 µM
same,TGI,[12],33.5 µM
same,TGI,[13],50.6 µM
same,TGI,[14],> 100 µM
same,TGI,[15],34.2 µM
same,TGI,[16],45 µM
same,TGI,[17],36.1 µM
same,TGI,[18],24.6 µM
same,TGI,[19],33.3 µM
same,TGI,[20],29.9 µM
same,TGI,[21],30.7 µM
same,TGI,[22],29.2 µM
same,TGI,[23],41 µM
same,TGI,[24],36.5 µM
same,TGI,[25],47.2 µM
same,TGI,[26],38.2 µM
same,TGI,[27],32 µM
same,TGI,[28],18.8 µM
same,TGI,[29],37.8 µM
same,TGI,[30],49.1 µM
same,TGI,[31],24.7 µM
same,TGI,[32],72.1 µM
same,TGI,[33],24.6 µM
same,TGI,[34],30.4 µM
same,TGI,[35],44.3 µM
same,TGI,[36],71.7 µM
same,TGI,[37],31.6 µM
same,TGI,[38],41.6 µM
same,TGI,[39],39.9 µM
same,TGI,[40],33.3 µM
same,TGI,[41],41.7 µM
same,TGI,[42],41.8 µM
same,TGI,[43],32.9 µM
same,TGI,[44],52.4 µM
same,TGI,[45],34.3 µM
same,TGI,[46],40.1 µM
same,TGI,[47],30.8 µM
same,TGI,[48],50.3 µM
same,TGI,[49],30.2 µM
same,TGI,[50],52 µM
same,TGI,[51],33.1 µM
same,TGI,[52],35.8 µM
same,TGI,[53],46.6 µM
same,TGI,[54],52.4 µM
same,TGI,[55],33.2 µM
c1ccc(CN2CCC(CNc3ncnc4ccccc34)C2)cc1 (configuration not stated),TGI,[1],> 100 µM
same,TGI,[2],> 100 µM
same,TGI,[3],> 100 µM
same,TGI,[4],> 100 µM
same,TGI,[5],> 100 µM
same,TGI,[6],38.7 µM
same,TGI,[7],35.4 µM
same,TGI,[8],> 100 µM
same,TGI,[9],> 100 µM
same,TGI,[10],85.8 µM
same,TGI,[11],> 100 µM
same,TGI,[12],> 100 µM
same,TGI,[13],> 100 µM
same,TGI,[14],> 100 µM
same,TGI,[15],> 100 µM
same,TGI,[16],> 100 µM
same,TGI,[17],> 100 µM
same,TGI,[18],> 100 µM
same,TGI,[19],> 100 µM
same,TGI,[21],> 100 µM
same,TGI,[22],82 µM
same,TGI,[23],> 100 µM
same,TGI,[24],> 100 µM
same,TGI,[25],> 100 µM
same,TGI,[56],> 100 µM
same,TGI,[26],> 100 µM
same,TGI,[27],> 100 µM
same,TGI,[28],> 100 µM
same,TGI,[29],> 100 µM
same,TGI,[30],> 100 µM
same,TGI,[31],> 100 µM
same,TGI,[32],65.1 µM
same,TGI,[33],> 100 µM
same,TGI,[34],> 100 µM
same,TGI,[35],> 100 µM
same,TGI,[36],> 100 µM
same,TGI,[37],> 100 µM
same,TGI,[38],> 100 µM
same,TGI,[39],> 100 µM
same,TGI,[40],> 100 µM
same,TGI,[41],> 100 µM
same,TGI,[57],> 100 µM
same,TGI,[42],> 100 µM
same,TGI,[43],> 100 µM
same,TGI,[44],> 100 µM
same,TGI,[45],> 100 µM
same,TGI,[46],> 100 µM
same,TGI,[47],> 100 µM
same,TGI,[58],> 100 µM
same,TGI,[48],> 100 µM
same,TGI,[49],> 100 µM
same,TGI,[50],> 100 µM
same,TGI,[51],> 100 µM
same,TGI,[52],> 100 µM
same,TGI,[59],> 100 µM
same,TGI,[54],> 100 µM
same,TGI,[55],43 µM

# Source: PubChem BioAssay (NCI)
